Data as given in patent publication US6172066A, “Dihydropyrimidines and uses thereof” (Synaptic Pharmaceutical Corporation, priority 1997, dated 2001).
Where a name gives a salt, the structure may show the parent alone.

Biological target: T1, α1D Human Adrenergic Receptor (Homo sapiens, UniProt P25100)
T1 construct: The entire coding region of α1D (1719 bp); expressed in transfected cells
T1 sequence (P25100 1-572): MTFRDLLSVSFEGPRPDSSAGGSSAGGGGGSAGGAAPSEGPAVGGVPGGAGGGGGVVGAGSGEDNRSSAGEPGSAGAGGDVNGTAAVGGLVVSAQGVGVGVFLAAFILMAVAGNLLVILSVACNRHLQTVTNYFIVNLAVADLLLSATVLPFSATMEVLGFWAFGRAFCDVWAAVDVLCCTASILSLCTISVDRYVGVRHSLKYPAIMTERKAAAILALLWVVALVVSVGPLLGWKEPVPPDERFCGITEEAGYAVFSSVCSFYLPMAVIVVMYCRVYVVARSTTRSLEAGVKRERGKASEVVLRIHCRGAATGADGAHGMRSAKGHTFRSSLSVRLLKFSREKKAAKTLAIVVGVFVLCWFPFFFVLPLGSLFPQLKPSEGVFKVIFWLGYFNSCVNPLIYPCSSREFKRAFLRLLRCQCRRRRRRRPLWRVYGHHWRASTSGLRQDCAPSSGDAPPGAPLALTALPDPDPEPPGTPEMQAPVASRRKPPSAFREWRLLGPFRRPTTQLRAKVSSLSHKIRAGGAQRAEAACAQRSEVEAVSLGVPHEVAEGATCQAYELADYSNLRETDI
Test: Radioligand binding, [3H]prazosin displacement, cloned human α1D receptor (LM(tk-) cell membranes)
Details: [3H]prazosin 0.5 nM, 37° C., 20 min; for Ki: read-out: hα1D pKi (converted)
Procedure: The activity of compounds at the different human receptors was determined in vitro using cultured cell lines that selectively express the receptor of interest. These cell lines were prepared by transfecting the cloned cDNA or cloned genomic DNA or constructs containing both genomic DNA and cDNA encoding the human α-adrenergic receptors as follows:
The entire coding region of α1D (1719 bp), including 150 base pairs of 5' untranslated sequence (5' UT) and 300 bp of 3' untranslated sequence (3' UT), was cloned into the BamHI and ClaI sites of the polylinker-modified eukaryotic expression vector pCEXV-3, called EXJ.HR. The construct involved the ligation of partial overlapping human lymphocyte genomic and hippocampal cDNA clones: 5' sequence were contained on a 1.2 kb SmaI-XhoI genomic fragment (the vector-derived BamHI site was used for subcloning instead of the internal insert-derived SmaI site) and 3' sequences were contained on an 1.3 kb XhoI-ClaI cDNA fragment (the ClaI site was from the vector polylinker). Stable cell lines were obtained by cotransfection with the plasmid α1A/EXJ (expression vector containing the α1A receptor gene (old nomenclature)) and the plasmid pGCcos3neo (plasmid containing the aminoglycoside transferase gene) into LM(tk-) cells using calcium phosphate technique. The cells were grown, in a controlled environment (37° C., 5% CO2), as monolayers in Dulbecco's modified Eagle's Medium (GIBCO, Grand Island, N.Y.) containing 25 mM glucose and supplemented with 10% bovine calf serum, 100 units/ml penicillin g, and 100 μg/ml streptomycin sulfate. Stable clones were then selected for resistance to the antibiotic G-418 (1 mg/ml), and membranes were harvested and assayed for their ability to bind [^3 H]prazosin as described below (see "Radioligand Binding assays").
The cell line expressing the human α1D receptor used herein was designated L-α1A (old nomenclature) and was deposited with the American Type Culture Collection, 12301 Parklawn Drive, Rockville, Md. 20852, U.S.A. under the provisions of the Budapest Treaty for the International Recognition of the Deposit of Microorganisms for the Purposes of Patent Procedure. The cell line expressing the human α1D receptor, was accorded ATCC Accession No. CRL 11138, and was deposited on Sep. 25, 1992.
Transfected cells from culture flasks were scraped into 5 ml of 5 mM Tris-HCl, 5 mM EDTA, pH 7.5, and lysed by sonication. The cell lysates were centrifuged at 1000 rpm for 5 min at 4° C., and the supernatant was centrifuged at 30,000×g for 20 min at 4° C. The pellet was suspended in 50 mM Tris-HCl, 1 mM MgCl2, and 0.1% ascorbic acid at pH 7.5. Binding of the α1 antagonist [^3 H]prazosin (0.5 nM, specific activity 76.2 Ci/mmol) to membrane preparations of LM(tk-) cells was done in a final volume of 0.25 ml and incubated at 37° C. for 20 min. Nonspecific binding was determined in the presence of 10 μM phentolamine. The reaction was stopped by filtration through GF/B filters using a cell harvester. Inhibition experiments, routinely consisting of 7 concentrations of the tested compounds, were analyzed using a non-linear regression curve-fitting computer program to obtain Ki values.

| Compound | Ki | hα1D pKi |
| --- | --- | --- |
| COCC1=C(C(=O)OC)C(c2ccc(F)c(F)c2)N(C(=O)NCCN[C@H]2CC[C@H](c3ccccn3)CC2)C(=O)N1 (single isomer, unassigned; (+)) [Example 7, (+)-trans-6-(3,4-Difluorophenyl)-1-{N-[2-(4-(2-pyridyl)-cyclohexylamino)ethyl]}carboxamido-5-methoxycarbonyl-4-methoxymethyl-2-oxo-1,2,3,6-tetrahydropyrimidine hydrochloride] | 3890 nM | – |
| COCC1=C(C(=O)OC)C(c2ccc(F)c(F)c2)N(C(=O)NCCN[C@H]2CC[C@](C#N)(c3ccccc3)CC2)C(=O)N1 (single isomer, unassigned; (+)) [Example 4, (+)-cis-6-(3,4-Difluorophenyl)-1-{N-[2-(4-cyano-4-phenyl-cyclohexylamino)ethyl]}carboxamido-5-methoxycarbonyl-4-methoxymethyl-2-oxo-1,2,3,6-tetrahydropyrimidine hydrochloride] | 100 nM | – |
| cis-6-(3,4,5-Trifluorophenyl)-1-{N-[2-(4-cyano-4-phenyl-cyclohexylamino)ethyl]}-carboxamido-5-acetyl-4-methoxymethyl-2-oxo-1,2,3,6-tetrahydropyrimidine hydrochloride [Example 2] | – | 7.05 |
| CCC1=C(C(N)=O)C(c2ccc(F)cc2F)N(C(=O)NCCN[C@H]2CC[C@](C#N)(c3ccccc3)CC2)C(=O)N1 (single isomer, unassigned; (+)) [Example 3, (+)-cis-5-Carboxamido-6-(2,4-difluorophenyl)-1-{N-[2-(4-cyano-4-phenyl-cyclohexylamino)ethyl]}carboxamido-4-ethyl-2-oxo-1,2,3,6-tetrahydropyrimidine hydrochloride] | 240 nM | – |
| COCC1=C(C(=O)OC)C(c2ccc(F)c(F)c2)N(C(=O)NCCN[C@H]2CC[C@@](C#N)(c3ccccc3)CC2)C(=O)N1 (single isomer, unassigned; (+)) [Example 5, (+)-trans-6-(3,4-Difluorophenyl)-1-{N-[2-(4-cyano-4-phenyl-cyclohexylamino)ethyl]}carboxamido-5-methoxycarbonyl-4-methoxymethyl-2-oxo-1,2,3,6-tetrahydropyrimidine hydrochloride] | 123 nM | – |

Now from value to compound:

| Ki | hα1D pKi | Compound |
| --- | --- | --- |
| 126 nM | – | COCC1=C(C(=O)OC)C(c2ccc(F)c(F)c2)N(C(=O)NCCN[C@H]2CC[C@](C(=O)OC)(c3ccccc3)CC2)C(=O)N1 (single isomer, unassigned; (+)) [Example 11, (+)-cis-6-(3,4-Difluorophenyl)-1-{N-[2-(4-methoxycarbonyl-4-phenyl-cyclohexylamino)ethyl]}carboxamido-5-methoxycarbonyl-4-methoxymethyl-2-oxo-1,2,3,6-tetrahydropyrimidine hydrochloride] |
| 1100 nM | – | COCC1=C(C(=O)OC)C(c2ccc(F)c(F)c2)N(C(=O)NCCN[C@H]2CC[C@](C#N)(c3ccccn3)CC2)C(=O)N1 (single isomer, unassigned; (+)) [Example 14, (+)-cis-6-(3,4-Difluorophenyl)-1-{N-[2-(4-cyano-4-(2-pyridyl)-cyclohexylamino)ethyl]}carboxamido-5-methoxycarbonyl-4-methoxymethyl-2-oxo-1,2,3,6-tetrahydropyrimidine hydrochloride] |
| 51.3 nM | – | COC(=O)C1=C(C)NC(=O)N(C(=O)NCCN[C@H]2CC[C@](C#N)(c3ccccc3F)CC2)C1c1ccc(F)c(F)c1 (single isomer, unassigned; (+)) [Example 13, (+)-cis-6-(3,4-Difluorophenyl)-1-{N-[2-(4-cyano-4-(2-fluorophenyl)-cyclohexylamino)ethyl]}carboxamido-5-methoxycarbonyl-4-methyl-2-oxo-1,2,3,6-tetrahydropyrimidine hydrochloride] |
